# Source: patent US20260315521A1, “THERAPEUTIC FORMULATIONS FOR KIDNEY DISEASE COMPRISING REPAGERMANIUM OR PROPAGERMANIUM AND/OR AT1R BLOCKERS” (DIMERIX BIOSCIENCE PTY LTD, priority 2023, published 2026)
# Read-outs that look alike come from different tables or passages of the source.
# Tests used:
# AT1R [1] = target: T1, AT1R (Homo sapiens, UniProt P30556); experiment: ARB potency or affinity at AT1R only (public sources: IUPHAR guide to pharmacology, Michel et al 2013, Choung et al 2018); format: binding; details: reference value
# T1 sequence (P30556 1-359): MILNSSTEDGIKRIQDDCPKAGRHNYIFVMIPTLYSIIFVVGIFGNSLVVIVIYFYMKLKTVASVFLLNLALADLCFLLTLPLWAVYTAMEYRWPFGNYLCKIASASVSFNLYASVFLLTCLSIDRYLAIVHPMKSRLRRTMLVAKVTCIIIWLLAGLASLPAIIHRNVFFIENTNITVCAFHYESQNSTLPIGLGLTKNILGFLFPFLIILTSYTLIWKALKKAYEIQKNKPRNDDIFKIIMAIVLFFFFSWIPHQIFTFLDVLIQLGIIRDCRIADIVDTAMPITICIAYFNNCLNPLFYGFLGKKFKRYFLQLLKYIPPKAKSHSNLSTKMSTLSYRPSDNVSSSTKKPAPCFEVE
# AT1R [2] = target: T1, AT1R; details: pIC50 or pKb from IUPHAR and/or Michel et al (2013), fimasartan from Choung et al 2018; cited from earlier work
# [3] = target: T2, co-stimulated CCR2-AT1R complexes (Homo sapiens, UniProt P30556); experiment: Gαi protein dissociation assay (ligand-induced BRET) in HEK293FT cells co-stimulated with AngII and MCP-1/CCL2; format: cell-based
# T2 construct: HA (haemagglutinin); expressed in transfected cells; host or cells: HEK293FT
# Source text: To establish if ARBs maintain their potency for inhibition of Gαi protein activation the potencies of ARBs at AT1R only were correlated with the potency of ARBs at co-stimulated CCR2-AT1R complexes obtained from a Gαi protein dissociation assay (FIG. 2).
# HEK293FT cells were transiently transfected by the plasmids coding for Gαi1-Nluc and CCR2-YFP haemagglutinin (HA)-tagged AT1R.
# GraphPad Prism (v9.3.1) was then used plot ligand-induced BRET verses ARB concentration and potency (pIC50-values) were obtained by fitting a sigmoidal concentration response curve using non-linear regression function of GraphPad Prism (v9.3.1).
# To calculate the potency of sparsentan HEK293FT cells were transiently transfected by the plasmids coding for Gαi1-Rluc8, CCR2-YFP and haemagglutinin (HA)-tagged AT1R. 48 h post-transfection, cells were incubated with substrate for 2 hours before cells were pre-incubated with sparsentan (1 μM) and filtered light emissions were sequentially measured for 1 s in each of the ‘donor wavelength window’ (410-490 nm) and ‘acceptor wavelength window’ (520-620 nm) for 30 minutes.
# The potency of ARBs at co-stimulated CCR2-AT1R complexes was then compared to the potency of ARBs at AT1R using the linear regression function of GraphPad Prism (v9.3.1).
# [4] = Population pharmacokinetic analysis of repagermanium (studies DMX-200-101, -202, -203; LC-MS/MS plasma levels); format: in vivo, human; details: for AUC(0-t) at 24 h: 240 mg/day, read-out: AUC24h, steady state, median; for AUC(0-t) at 24 h / AUC24h, steady state, range: 240 mg total daily dose; for CL/F: po, read-out: Clearance, median (converted)
# Method: In all studies blood samples were analyzed using liquid chromatography tandem mass spectrometry (LC-MS/MS). This method involves the addition of deuterated-PPG (d2-PPG) as an internal standard (IS) and liquid-liquid extraction with chloroform for sample processing. The sample is analyzed on an LC-MS/MS system consisting of a Shimadzu LC20AD with Thermo Fisher Hypercarb column using gradient elution and an API 4000 mass spectrometer. The mass spectrometer is operated in the negative electrospray ionization (ESI) ion mode, and used to monitor the precursor to product ion transitions for PPG and d2-PPG, respectively. The lower limit of quantification (LLOQ) was 5 ng/ml.
# The pharmacometric analysis was carried out in several steps driven by the suitability of the clinical data for development of the PK model. 1. An initial structural population PK model was developed using data from healthy volunteers (study 101). 2. This model was subsequently updated using the sparse data in patients from studies 202 and 203, and effects of covariates were explored. 3. Model qualification was performed. 4. Finally, the developed model was used for simulations of the influence of covariates on key PK parameters as well as on potential exposures.
# The SAS software (version 9.4) was used for preparing the analysis dataset. The population PK analysis was performed using NONMEM (version 7.5.0) and the first order conditional estimation (FOCE) method with interaction. PsN (version≥5.0.0) was used to execute NONMEM runs as well as for running visual predictive checks (VPCs), sampling importance resampling (SIR) and automated step-wise covariate modelling (SCM). The R software (version≥4.0.2) was used for exploratory analysis, creation of goodness of fit (GOF) plots, and summary statistics. Campsis (version 1.1.0), an R-based software application provided by Calvagone, was used for simulations.
# The NONMEM version 7.5.0 was used with the GNU Fortran (GCC) compiler version 9.3.0, running on a Ubuntu 20.04 LTS system with Linux kernel version 5.4.0-72-generic on Intel Xeon E5-2640 v3 @ 8 HT 2.60 GHz, using VMWare ESXi 7.0u1 platform with fault tolerance, hosting virtual management server with 8 vCPU; and calculation nodes with Intel Xeon E5-2680 v4 14HT 2.40 GHz. Fortran compiler optimisation options were:-static-w-O3-ffast-math. All software was used in a validated environment.
# In the mixed effects modelling the population parameters are categorised as follows: Fixed effects parameters, θ (theta), are used for the structural population parameters (e.g. Ka, CL, V, F, etc.), as well as certain parameters relating the population parameters to the physiological or demographic variables (covariates) included in the analysis. Random effects parameters, n (eta), are used for describing inter-individual variability (IIV) in the fixed effects parameters, and can also be used to describe inter-occasion variability (IOV) if appropriately included in the model. Eta parameters are assumed to be normally distributed random variables with mean zero and variance-covariance matrix Q (omega). The square root of the diagonal elements of this matrix provides the IIV estimates. Off-diagonal elements (if not fixed to zero) are commonly translated to correlations. Random effects parameters, ¿ (epsilon), are used to describe the residual variability. Residual variability includes intra-individual error, analytical error, potential error due to model missspecification and any other error not considered by structural elements such as θ and η. Residual variability parameters are assumed to be normally distributed random variables with mean zero and standard deviation σ (sigma).
# Different structural models combined with different residual error models and, if needed, with different estimation methods were applied to identify the most appropriate mixed-effects model. […]
# [5] = Effect of different doses of repagermanium on efficacy of treatment (FIG. 1); format: in vivo
# [6] = tested on: protein to creatinine ratio; experiment: Reduction in protein to creatinine ratio as a biomarker of kidney function; format: in vivo, human; details: 120 mg BID
# [7] = tested on: chemotactic migration of monocytes by MCP-1; details: cited from earlier work
# [8] = tested on: angiotensin II-induced cellular responses; details: compared with losartan; cited from earlier work
# [9] = study 101, healthy volunteers, oral
# [10] = study 202, FSGS patients receiving irbesartan
# [11] = study 203, DKD patients receiving irbesartan
# T2 sequence (P41597 whole entry partner, one chain of several): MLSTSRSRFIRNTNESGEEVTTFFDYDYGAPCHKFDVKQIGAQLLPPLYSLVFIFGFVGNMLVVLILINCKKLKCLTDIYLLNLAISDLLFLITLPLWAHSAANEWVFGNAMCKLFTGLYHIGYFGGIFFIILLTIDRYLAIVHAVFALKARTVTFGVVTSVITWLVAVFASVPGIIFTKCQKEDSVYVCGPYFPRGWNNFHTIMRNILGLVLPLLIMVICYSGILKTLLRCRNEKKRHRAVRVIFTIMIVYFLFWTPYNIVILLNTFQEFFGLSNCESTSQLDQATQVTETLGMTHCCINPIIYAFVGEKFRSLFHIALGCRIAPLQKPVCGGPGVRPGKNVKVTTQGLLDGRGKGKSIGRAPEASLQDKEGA
structure (smiles),measurement,setting,value
CCOc1nc2cccc(C(=O)O)c2n1Cc1ccc(-c2ccccc2-c2nnn[nH]2)cc1 [Candesartan],"Fold decrease in potency, AT1R only",AT1R [1],1.00 fold
same,"Potency (pIC50/pKb), AT1R only",AT1R [2],10
CCOc1nc2cccc(C(=O)O)c2n1Cc1ccc(-c2ccccc2-c2nc(=O)o[nH]2)cc1 [Azilsartan],"Fold decrease in potency, AT1R only",AT1R [1],1.00 fold
same,"Potency (pIC50), AT1R-CCR2","[3]; HEK293FT, 100 nM AngII + 100 nM MCP-1, 30 min ARB pre-incubation",9.97
same,"Potency (pIC50/pKb), AT1R only",AT1R [2],9.9
"O=C(O)C[CH2][Ge](=[O])[O][Ge](=[O])[CH2]CC(=O)O [repagermanium, 3-[(2-carboxyethyl-oxogermyl)oxy-oxogermyl]propanoic acid]",blood concentration before the next dose,[4]; 80 mg twice per day,falling too low before the next dose to provide a therapeutic effect
same,"steady state AUC, range",[4]; 120 mg BID,5000 to 25000 ng·h/mL
same,AUC(0-t) at 24 h,"[4]; human, plasma, study 101, healthy volunteers",9800 ng·h/mL
same,AUC(0-t) at 24 h,"[4]; human, plasma, study 202, FSGS patients",16700 ng·h/mL
same,AUC(0-t) at 24 h,"[4]; human, plasma, study 203, DKD patients",11800 ng·h/mL
same,CL/F,"[4]; human, plasma, study 101, healthy volunteers, oral",670 mL/min
same,CL/F,"[4]; human, plasma, study 202, FSGS patients receiving irbesartan, 120 mg bid oral",300 mL/min
same,CL/F,"[4]; human, plasma, study 203, DKD patients receiving irbesartan, 120 mg bid oral",345 mL/min
same,AUC,"[4]; human, plasma, 120 mg BID, read-out: steady state AUC",~15000 ng·h/mL
same,"Clearance, range",[4]; [9],24.6 to 60.1 L/h
same,"F (rel. bioavailability), median",[4]; [9],1.6
same,"F (rel. bioavailability), range",[4]; [9],0.7-3.7
same,"AUC24h, steady state, range","[4]; study 101, healthy volunteers",5500 to 24900 ng·h/mL
same,"F (rel. bioavailability), median",[4]; [10],1.1
same,"F (rel. bioavailability), range",[4]; [10],0.9-1.7
same,"Clearance, range","[4]; study 202, FSGS patients receiving irbesartan, 120 mg bid oral",4.6 to 36.5 L/h
same,"AUC24h, steady state, range","[4]; study 202, FSGS patients",7800 to 45200 ng·h/mL
same,"F (rel. bioavailability), median",[4]; [11],1.0
same,"F (rel. bioavailability), range",[4]; [11],0.4-1.9
same,"Clearance, range","[4]; study 203, DKD patients receiving irbesartan, 120 mg bid oral",5.8 to 47.6 L/h
same,"AUC24h, steady state, range","[4]; study 203, DKD patients",3900 to 47700 ng·h/mL
same,therapeutic effect,[5]; 140 mg twice per day,reduced therapeutic effect
same,efficacy vs repagermanium dose,"[5]; different doses, FIG. 1",‘bell-shaped’ inhibitory curve
same,protein to creatinine ratio,[6],reduction in protein to creatinine ratio
"CCCCC1=NC2(CCCC2)C(=O)N1Cc1ccc(-c2ccccc2S(=O)(=O)Nc2noc(C)c2C)c(COCC)c1 [Sparsentan, 2-[4-[(2-butyl-4-oxo-1,3-diazaspiro[4.4]non-1-en-3-yl)methyl]-2-(ethoxymethyl)phenyl]-N-(4,5-dimethyl-1,2-oxazol-3-yl)benzenesulfonamide]","Fold decrease in potency, AT1R only",AT1R [1],1.00 fold
same,Kb,"[3]; read-out: Affinity (pKb), AT1R-CCR2 (converted)",1.74 nM
same,"Potency (pIC50/pKb), AT1R only",AT1R [2],9.1
CCCCc1nc(C)c(CC(=S)N(C)C)c(=O)n1Cc1ccc(-c2ccccc2-c2nnn[nH]2)cc1 [Fimasartan],"Fold decrease in potency, AT1R only",AT1R [1],1.00 fold
same,"Potency (pIC50/pKb), AT1R only",AT1R [2],8.82^$
CCCCc1ncc(/C=C(\Cc2cccs2)C(=O)O)n1Cc1ccc(C(=O)O)cc1 [Eprosartan],"Fold decrease in potency, AT1R only",AT1R [1],1.00 fold
same,"Potency (pIC50/pKb), AT1R only",AT1R [2],8.8
"O=C(O)C[CH2][Ge](=[O])[O][Ge](=[O])[CH2]CC(=O)O [propagermanium, 3-[(2-carboxyethyl-oxogermyl)oxy-oxogermyl] propanoic acid]",inhibition of in vitro chemotactic migration of monocytes by MCP-1,[7],specifically inhibit in vitro chemotactic migration of monocytes by MCP-1
CCCCc1nc(Cl)c(C(=O)O)n1Cc1ccc(-c2ccccc2-c2nn[nH]n2)cc1 [EXP3174],potency in blocking angiotensin II-induced cellular responses,[8],significantly more potent than losartan
